Test results: patent US20260098026A1, “M4 ACTIVATORS/MODULATORS AND USES THEREOF” (Cerevel Therapeutics, LLC, priority 2022, published 2026)

Tests used:
[1] = target: T1, M3 muscarinic acetylcholine receptor (mAChR) (Homo sapiens, UniProt P20309); assay: FLIPR calcium assay (Fluo 8), M3-overexpressing CHO-K1 cells; format: cell-based
T1 construct: expressed in transfected cells; host or cells: CHO-K1
Method in brief: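 CHO-K1 cells overexpressing each human receptor seeded at 15,000 per well, grown overnight at 37° C., 5% CO2, then loaded with Fluo-8 for 30 min. Compounds in HBSS added and calcium response read on FLIPR; EC50 and Emax calculated per subtype.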

[2] = target: T2, M4 mAChR (Homo sapiens, UniProt P08173); assay: cAMP TR-FRET assay with forskolin, M4-overexpressing CHO-K1 cells; format: cell-based
T2 construct: expressed in transfected cells; host or cells: CHO-K1
T2 sequence (P08173 1-479): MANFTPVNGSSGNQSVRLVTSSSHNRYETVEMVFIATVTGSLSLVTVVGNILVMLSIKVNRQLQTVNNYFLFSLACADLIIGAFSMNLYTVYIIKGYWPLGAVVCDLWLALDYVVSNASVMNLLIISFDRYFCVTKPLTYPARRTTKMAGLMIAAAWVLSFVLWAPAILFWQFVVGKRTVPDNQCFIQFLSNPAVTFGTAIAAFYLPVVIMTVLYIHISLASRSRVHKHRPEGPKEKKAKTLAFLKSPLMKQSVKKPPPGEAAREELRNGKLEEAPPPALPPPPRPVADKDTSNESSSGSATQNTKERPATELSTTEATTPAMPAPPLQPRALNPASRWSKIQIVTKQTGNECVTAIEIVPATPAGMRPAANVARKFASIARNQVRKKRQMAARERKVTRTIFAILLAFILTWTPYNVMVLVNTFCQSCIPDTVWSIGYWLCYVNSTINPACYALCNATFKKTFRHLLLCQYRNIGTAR
Method in brief: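 CHO-K1 cells overexpressing the receptor were stimulated with forskolin to raise cAMP, so that Gi-mediated agonist decreases could be measured. cAMP was quantified by TR-FRET competition between cellular cAMP and labelled donor for anti-cAMP antibody, giving potency and efficacy.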

T1 sequence (P20309 whole entry): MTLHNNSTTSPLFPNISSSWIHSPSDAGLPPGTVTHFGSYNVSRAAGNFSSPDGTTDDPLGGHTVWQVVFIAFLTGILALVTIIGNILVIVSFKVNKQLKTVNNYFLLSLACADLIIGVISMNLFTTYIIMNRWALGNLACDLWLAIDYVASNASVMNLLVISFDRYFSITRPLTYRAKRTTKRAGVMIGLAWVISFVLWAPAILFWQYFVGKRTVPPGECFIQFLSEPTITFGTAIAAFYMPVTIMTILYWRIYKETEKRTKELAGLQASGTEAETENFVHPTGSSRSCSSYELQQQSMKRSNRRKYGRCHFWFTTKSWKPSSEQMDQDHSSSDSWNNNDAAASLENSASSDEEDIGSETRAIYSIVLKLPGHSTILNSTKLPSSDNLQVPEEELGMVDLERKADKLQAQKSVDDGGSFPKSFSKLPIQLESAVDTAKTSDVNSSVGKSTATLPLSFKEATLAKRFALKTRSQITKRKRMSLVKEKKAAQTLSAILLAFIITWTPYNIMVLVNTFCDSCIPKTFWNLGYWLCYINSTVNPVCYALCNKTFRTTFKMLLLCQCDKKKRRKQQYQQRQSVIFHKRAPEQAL

Compound | EC50 ([1]; FLIPR calcium) [µM] | Emax ([2]; cAMP TR-FRET with forskolin) [%] | EC50 ([1]; FLIPR) [µM] | Emax ([2]; cAMP assay) [%]
CCOC(=O)N1CC2(CC[C@@H](N3CCN(c4cc(F)cnc4-c4cncc(COC)c4)CC3)C2)C1 [Compound A138] | > 10 | 80 to 100 |  | 
CCOC(=O)N1CC2(CC[C@@H](N3CCN(c4cc(F)cnc4-c4cc(C)cc(CO)c4)CC3)C2)C1 [Compound A141] | > 10 | 80 to 100 |  | 
CCOC(=O)N1CC2(CC[C@@H](N3CCN(c4cc(F)cnc4-c4cccc(O)c4F)CC3)C2)C1 [Compound A142] | > 10 | 80 to 100 |  | 
CCOC(=O)N1CC2(CC[C@@H](N3CCN(c4cc(F)cnc4-c4cccc(O)n4)CC3)C2)C1 [Compound A143] | > 10 | 80 to 100 |  | 
CCOC(=O)N1CC2(CC[C@@H](N3CCN(c4cc(F)cnc4-c4cc(C)nn4C)CC3)C2)C1 [Compound A144] | > 10 | 80 to 100 |  | 
CCOC(=O)N1CC2(CC[C@@H](N3CCN(c4cc(F)cnc4-c4ccc(OC)cc4CO)CC3)C2)C1 [Compound A145] | > 10 | 80 to 100 |  | 
CCOC(=O)N1CC2(CC[C@@H](N3CCN(c4cc(F)cnc4-c4ccc(F)cc4CO)CC3)C2)C1 [Compound A147] | > 10 | 80 to 100 |  | 
CCOC(=O)N1CC2(CC[C@@H](N3CCN(c4cc(F)cnc4-c4ccc5nc[nH]c5c4)CC3)C2)C1 [Compound A148] |  |  | > 10 | 80 to 100
CCOC(=O)N1CC2(CC[C@@H](N3CCN(c4cc(F)cnc4-c4ccc(C)c(CO)c4)CC3)C2)C1 [Compound A150] |  |  | > 10 | 50 to 79.9
CCOC(=O)N1CC2(CC[C@@H](N3CCN(c4cc(F)cnc4-c4ccc(OC)cc4C#N)CC3)C2)C1 [Compound A152] |  |  | > 10 | 80 to 100
CCOC(=O)N1CC2(CC[C@@H](N3CCN(c4cc(F)cnc4-c4cc(F)ncc4F)CC3)C2)C1 [Compound A153] |  |  | > 10 | 80 to 100
CCOC(=O)N1CC2(CC[C@@H](N3CCN(c4cc(F)cnc4-c4cc(F)cc(CO)c4)CC3)C2)C1 [Compound A154] |  |  | > 10 | 80 to 100
CCOC(=O)N1CC2(CC[C@@H](N3CCN(c4cc(F)cnc4-c4ccc(=O)n(CC)c4)CC3)C2)C1 [Compound A155] |  |  | > 10 | 80 to 100
CCOC(=O)N1CC2(CC[C@@H](N3CCN(c4cc(F)cnc4-c4ccc(F)c(O)c4)CC3)C2)C1 [Compound A156] |  |  | > 10 | 80 to 100
CCOC(=O)N1CC2(CC[C@@H](N3CCN(c4cc(F)cnc4-c4cn(C)nc4C)CC3)C2)C1 [Compound A157] |  |  | > 10 | 80 to 100
CCOC(=O)N1CC2(CC[C@@H](N3CCN(c4cc(F)cnc4-c4ccc5c[nH]nc5c4)CC3)C2)C1 [Compound A159] |  |  | > 10 | 80 to 100
CCOC(=O)N1CC2(CC[C@@H](N3CCN(c4cc(F)cnc4-c4cnn5c4CCCC5)CC3)C2)C1 [Compound A160] |  |  | > 10 | 80 to 100
CCOC(=O)N1CC2(CC[C@@H](N3CCN(c4cc(F)cnc4-c4ccc(F)nc4C)CC3)C2)C1 [Compound A161] |  |  | > 10 | 80 to 100
CCOC(=O)N1CC2(CC[C@@H](N3CCN(c4cc(F)cnc4-c4cccc(F)c4CO)CC3)C2)C1 [Compound A162] |  |  | > 10 | 80 to 100
CCOC(=O)N1CC2(CC[C@@H](N3CCN(c4cc(F)cnc4-c4ccnc(F)c4OC)CC3)C2)C1 [Compound A163] |  |  | > 10 | 80 to 100
CCOC(=O)N1CC2(CC[C@@H](N3CCN(c4cc(F)cnc4-c4cn(C)c5ncccc45)CC3)C2)C1 [Compound A164] |  |  | > 10 | 50 to 79.9
CCOC(=O)N1CC2(CC[C@@H](N3CCN(c4cc(F)cnc4-c4ccn5nccc5c4)CC3)C2)C1 [Compound A165] |  |  | > 10 | 80 to 100

Compound | EC50 ([1]; FLIPR calcium) [µM] | Emax ([2]; cAMP TR-FRET with forskolin) [%] | EC50 ([1]; FLIPR) [µM] | Emax ([2]; cAMP assay) [%]
CCOC(=O)N1CC2(CC[C@@H](N3CCN(c4cc(F)cnc4-c4c(O)cccc4F)CC3)C2)C1 [Compound A167] |  |  | > 10 | 80 to 100
CCOC(=O)N1CC2(CC[C@@H](N3CCN(c4cc(F)cnc4-c4cnn(COC)c4)CC3)C2)C1 [Compound A168] |  |  | > 10 | 80 to 100
CCOC(=O)N1CC2(CC[C@@H](N3CCN(c4cc(F)cnc4-c4ccc(CCO)cc4)CC3)C2)C1 [Compound A169] |  |  | > 10 | 80 to 100
CCOC(=O)N1CC2(CC[C@@H](N3CCN(c4cc(F)cnc4-c4c[nH]nc4C4CC4)CC3)C2)C1 [Compound A170] |  |  | > 10 | 80 to 100
CCOC(=O)N1CC2(CC[C@@H](N3CCN(c4cc(F)cnc4-c4cnn(CCF)c4)CC3)C2)C1 [Compound A171] |  |  | > 10 | 80 to 100
CCOC(=O)N1CC2(CC[C@@H](N3CCN(c4cc(F)cnc4-c4cnn(CC(F)F)c4)CC3)C2)C1 [Compound A172] |  |  | > 10 | 80 to 100
CCOC(=O)N1CC2(CC[C@@H](N3CCN(c4cc(F)cnc4-c4cnn5c4OCCC5)CC3)C2)C1 [Compound A173] |  |  | > 10 | 50 to 79.9
CCOC(=O)N1CC2(CC[C@@H](N3CCN(c4cc(F)cnc4-c4cncc(N)c4)CC3)C2)C1 [Compound A174] |  |  | > 10 | 80 to 100
CCOC(=O)N1CC2(CC[C@@H](N3CCN(c4cc(F)cnc4-c4cc(O)ncc4F)CC3)C2)C1 [Compound A175] |  |  | > 10 | 80 to 100
CCOC(=O)N1CC2(CC[C@@H](N3CCN(c4cc(F)cnc4-c4ccc5c(c4)nnn5C)CC3)C2)C1 [Compound A176] |  |  | > 10 | 80 to 100
CCOC(=O)N1CC2(CC[C@@H](N3CCN(c4cc(F)cnc4-c4ccn5ncnc5c4)CC3)C2)C1 [Compound A177] |  |  | > 10 | 80 to 100
CCOC(=O)N1CC2(CC[C@@H](N3CCN(c4cc(F)cnc4-c4cccc5ncnn45)CC3)C2)C1 [Compound A178] |  |  | > 10 | 19 to 49.9
CCOC(=O)N1CC2(CC[C@@H](N3CCN(c4cc(F)cnc4-c4cccnc4F)CC3)C2)C1 [Compound A179] |  |  | > 10 | 80 to 100
CCOC(=O)N1CC2(CC[C@@H](N3CCN(c4cc(F)cnc4-c4ccc(OC)nc4F)CC3)C2)C1 [Compound A180] |  |  | > 10 | 80 to 100
CCOC(=O)N1CC2(CC[C@@H](N3CCN(c4cc(F)cnc4-c4cncnc4C)CC3)C2)C1 [Compound A181] |  |  | > 10 | 80 to 100
CCOC(=O)N1CC2(CC[C@@H](N3CCN(c4cc(F)cnc4-c4ccc(C#N)cc4)CC3)C2)C1 [Compound A182] |  |  | > 10 | 80 to 100
CCOC(=O)N1CC2(CC[C@@H](N3CCN(c4cc(F)cnc4-c4cnc(C5CC5)nc4)CC3)C2)C1 [Compound A183] |  |  | > 10 | 80 to 100
CCOC(=O)N1CC2(CC[C@@H](N3CCN(c4cc(F)cnc4-c4ccc(C)nc4)CC3)C2)C1 [Compound A186] |  |  | > 10 | 80 to 100
[2H]C([2H])([2H])n1cc(-c2ncc(F)cc2N2CCN([C@@H]3CCC4(C3)CN(C(=O)OCC)C4)CC2)cn1 [Compound A187] |  |  | > 10 | 80 to 100
CCOC(=O)N1CC2(CC[C@@H](N3CCN(c4cc(F)cnc4-c4ccc(OC)nc4)CC3)C2)C1 [Compound A188] |  |  | > 10 | 80 to 100
CCOC(=O)N1CC2(CC[C@@H](N3CCN(c4cc(F)cnc4-c4ccc(OC(F)F)nc4)CC3)C2)C1 [Compound A189] |  |  | > 10 | 80 to 100
